Converted amounts (≈) assume the structure as drawn. “And” between values parts separate entries of the source, which are not always exact repeats. Equal entries are not always repeated. Where two headings read alike, the source gives them in different places.
Tests used:
MCF-7 = assay: MTT viability assay, MCF-7 (breast cancer); type: cell-based; settings: Homo sapiens, MCF7, 24 h incubation, mean ± standard error
Method: (§1) Compounds 4a–h and 6a–h were initially evaluated for in vitro antitumour activity against three different human cell lines: MCF-7, HCT-116, and HepG-2, and only the representative active cytotoxic compounds were further evaluated against the normal HFL-1 cell line. The in vitro cytotoxicity evaluation was performed at the Regional Center for Mycology & Biotechnology (RCMP), Al-Azhar University under different concentrations (50, 25, 12.5, 6.25, 3.125, 1.56, and 0 µg/mL); Vinblastine and Doxorubicin are used as reference cytotoxic compounds. The measurements of cell growth and the in vitro cytotoxicity evaluation were determined using viability assay as described in literature[31–33] and the result was cited in Table 1 and Figure 2.
(§2) The in vitro cytotoxic evaluation of the prepared compounds 4a–h and 6a–h was performed against MCF-7 (breast cancer), HCT-116 (human colon cancer), HepG-2 (liver cancer), and HFL-1(normal fibroblast lung) using the 3-(4,5-dimethylthiazol-2-yl)-2,5-diphenyl tetrazolium bromide (MTT) colorimetric assay as described in literature. […] The results were expressed as growth inhibitory concentration (IC50) values, which represent the compounds’ concentrations required to produce a 50% inhibition of the cell growth after 24 h of incubation, compared to the untreated controls as shown in Table 1 and Figure 2.

HCT-116 = assay: MTT viability assay, HCT-116 (human colon cancer); type: cell-based; settings: 24 h incubation, mean ± standard error
Method: as §1, §2

HepG-2 = assay: MTT viability assay, HepG-2 (liver cancer); type: cell-based; settings: Homo sapiens, HepG2, 24 h incubation, mean ± standard error
Method: as §1, §2

HFL-1 = assay: MTT viability assay, HFL-1 (normal fibroblast lung); type: cell-based; settings: Homo sapiens, HFL1, 24 h incubation, normal cell line, mean ± standard error
Method: as §1, §2

[1] = system: caspases 3/7 in MDA-MB-231 cells; assay: Caspase-Glo 3/7 activity assay; type: cell-based; settings: Homo sapiens, 24 h treatment, 10 concentrations, read-out: Caspase-Glo 3/7 activity assay, MDA-MB-231 cell line, IC50
Method: The Caspase-Glo 3/7 activity assay was performed by Reaction Biology Corporation, One Great Valley Parkway, PA. Examined compounds 4c, 4e, 4h, 6d, and 6e were dissolved in DMSO as 20 mM stock and tested for their ability to Caspase-Glo 3/7 activity assay. […] Caspase-Glo 3/7 activity assay reagent was purchased from Promega (Madison, WI). MDA-MB-231 cell line was provided by ATCC. MDA-MB-231 cell line culture conditions: DMEM with 10% FBS. 100 µg/mL penicillin and 100 µg/mL streptomycin were added to the culture media. Cultures were maintained at 37 °C in a humidified atmosphere of 5% CO2 and 95% air.
Caspases are […] that promote apoptosis. Caspases are vital biochemical features of apoptotic signalling. […] To determine whether the cell growth inhibition in response to the benzochromene derivatives was mediated by apoptosis and was caspase dependent, MDA-MB-231 cells were treated with 10 different concentrations of the target compounds for 24 h.

c-Src kinase = target: T1, c-Src kinase (Homo sapiens, UniProt P12931); assay: c-Src kinase assay (HTScan Src Kinase Assay Kit); type: biochemical; settings: GST-Src kinase, triplicate; read-out: Inhibition of c-Src kinase activity, IC50
T1 construct: purchased Cell Signaling Technology (Danvers, MA) 7776
Method: Streptavidin-coated plates were purchased from Pierce (Rockford, IL). […] The reaction mixture was incubated for 30 min at room temperature. The kinase reaction was stopped with the addition of 50 µL of 50 mM EDTA (pH 8.0). […] At the end of the incubation, the wells were washed three times with 200 µL of 0.05% Tween-20 in PBS buffer (PBS/T). After that to each well was added 100 µL of phosphotyrosine antibody (P-Tyr-100) (1:1000 dilution in PBS/T with 1% BSA) and the wells were incubated for another 60 min. After washing three times with 0.05% Tween-20 in PBS/T, the wells were incubated with 100 µL secondary anti-mouse IgG antibody, which was HRP-conjugated (1:500 dilution in PBS/T with 1% BSA) for next 30 min at room temperature. The wells were washed five times with 0.05% Tween-20 in PBS and then were incubated with 100 µL of 3,3′,5,5′-tetramethylbenzidine dihydrochloride substrate for 5 min. […] IC50 values of the compounds were calculated using ORIGIN 6.0 (Origin Lab Corporation, Northampton, MA) software. […] All the experiments were carried out in triplicate.

MDA-MB-231 cell line = assay: Cell invasion assay; type: cell-based; settings: Homo sapiens
Method: The cell invasion assay was performed by Reaction Biology Corporation, One Great Valley Parkway, PA. All compounds were dissolved in DMSO and tested for their ability to cell invasion assay. Compounds 4c, 6e, and reference compound bosutinib were purchased from Sellechem (Houston, TX). Corning Bio Coat Fluoro Blok Insert System-96-well plates were purchased from Corning (Corning Incorporated, Tewksbury, MA). Calcein AM labelling reagent was purchased from Molecular Probes (Eugene, Oregon). MDA-MB-231 cell line was purchased from American Type Culture Collection (Manassas, VA). MDA-MB-231 cells were grown in DMEM medium supplemented with 10% foetal bovine serum (FBS), 100 µg/mL of penicillin, and 100 µg/mL of streptomycin. Cultures were maintained at 37 °C in a humidified atmosphere of 5% CO2 and 95% air-following incubation; medium was carefully removed from the apical chambers. The insert system was transferred into a second 96-square well plate containing 200 µl/well of 4 µg/mL Calcein AM in HBSS. The plates were incubated for 1 h at 37 °C, 5% CO2. Fluorescence of invaded cells was read at wavelengths of 492/535 nm (Ex/Em) from bottom reading using Envision 2104 Multilabel Reader (PerkinElmer, Santa Clara, CA). The IC50 curves were plotted and IC50 values were calculated using the Graph Pad Prism 4 program for windows (Graph Pad software, San Diego California. www.graphpad.com) based on a sigmoidal dose-response equation.
Tumour invasion is a common feature of triple-negative breast cancers. […] The invasion process has become an important prerequisite for cancer progression and metastasis. […] A bosutinib drug was used as a control ant-invasive agent. […] The obtained data might confirm that the cytotoxicity of novel molecules led to the death of the cancer cells and stopped the metastatic processes.

T1 sequence (P12931 whole entry): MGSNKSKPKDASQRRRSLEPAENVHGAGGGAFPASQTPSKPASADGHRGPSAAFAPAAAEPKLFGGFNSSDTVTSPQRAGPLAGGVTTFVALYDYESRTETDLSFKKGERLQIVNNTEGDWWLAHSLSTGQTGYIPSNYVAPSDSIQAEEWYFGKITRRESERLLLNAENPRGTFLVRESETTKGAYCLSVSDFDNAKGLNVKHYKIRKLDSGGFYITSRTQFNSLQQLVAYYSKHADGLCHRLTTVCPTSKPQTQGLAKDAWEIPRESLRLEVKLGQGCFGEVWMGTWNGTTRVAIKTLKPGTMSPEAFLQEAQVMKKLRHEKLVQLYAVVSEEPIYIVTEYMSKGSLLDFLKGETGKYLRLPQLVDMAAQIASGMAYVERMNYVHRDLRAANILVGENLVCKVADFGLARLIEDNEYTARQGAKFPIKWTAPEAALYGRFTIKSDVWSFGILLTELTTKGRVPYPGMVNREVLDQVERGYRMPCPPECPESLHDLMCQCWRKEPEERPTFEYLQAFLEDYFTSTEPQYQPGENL

IC50 (MCF-7) [µg/mL]	IC50 (HCT-116) [µg/mL]	IC50 (HepG-2) [µg/mL]	melting point [°C]	IC50 [1] [nM]	IC50 (c-Src kinase)	IC50 (MDA-MB-231 cell line; Table 2, read-out: IC50 anti-invasion, MDA-MB-231 breast cancer cells) [nM]	IC50 (MDA-MB-231 cell line; read-out: IC50 anti-invasion activity, MDA-MB-231) [nM]	Compound	IC50 (HFL-1) [µg/mL]
2.5 ± 0.14 (≈ 5.48 µM)	0.5 ± 0.35 (≈ 1.1 µM)	1.8 ± 0.2 (≈ 3.95 µM)	250 to 251					N#CC1=C(N)Oc2ccc3cc(Br)ccc3c2C1c1ccc(Br)cc1 (stereo not drawn) [Compound 4d, 3-Amino-8-bromo-1-(4-bromophenyl)-1H-benzo[f]chromene-2-carbonitrile]	
2.7 ± 0.2 (≈ 8.22 µM)	2.1 ± 0.23 (≈ 6.4 µM)	11.2 ± 0.18 (≈ 34.1 µM)	237 to 238					COc1ccc2c3c(ccc2c1)OC(N)=C(C#N)C3c1ccccc1 (stereo not drawn) [Compound 6a, 3-Amino-1-phenyl-8-methoxy-1H-benzo[f]chromene-2-carbonitrile]	
0.6 ± 0.08 (≈ 1.67 µM)	3.8 ± 0.14 (≈ 10.6 µM)	29.3 ± 0.12 (≈ 81.8 µM)	222 to 223					COc1ccc(C2C(C#N)=C(N)Oc3ccc4cc(OC)ccc4c32)cc1 (stereo not drawn) [Compound 6f, 3-Amino-8-methoxy-1-(4-methoxyphenyl)-1H-benzo[f]chromene-2-carbonitrile]	
0.66 ± 0.04 (≈ 1.51 µM)	4.1 ± 0.16 (≈ 9.38 µM)	11 ± 0.02 (≈ 25.2 µM)	200 to 201	31500	214 to 329 nM and 214 nM			COc1ccc(C2C(C#N)=C(N)Oc3ccc4cc(Br)ccc4c32)cc1OC (stereo not drawn) [Compound 4h, 3-Amino-8-bromo-1-(3,4-dimethoxyphenyl)-1H-benzo[f]chromene-2-carbonitrile]	12.9 ± 0.13 (≈ 29.5 µM)
0.5 ± 0.23 (≈ 1.21 µM)	0.7 ± 0.11 (≈ 1.7 µM)	1.1 ± 0.12 (≈ 2.67 µM)	260 to 261	22600	9 to 329 nM and 89 nM	10800	10500	N#CC1=C(N)Oc2ccc3cc(Br)ccc3c2C1c1ccc(Cl)cc1 (stereo not drawn) [Compound 4c, 3-Amino-8-bromo-1-(4-chlorophenyl)-1H-benzo[f]chromene-2-carbonitrile]	15.2 ± 0.1 (≈ 36.9 µM)
6.1 ± 0.03 (≈ 7.52 µM)	2.6 ± 0.08 (≈ 3.21 µM)	4.6 ± 0.01 (≈ 5.67 µM)						CC[C@]1(O)C[C@@H]2CN(CCc3c([nH]c4ccccc34)[C@@](C(=O)OC)(c3cc4c(cc3OC)N(C)[C@H]3[C@@](O)(C(=O)OC)[C@H](OC(C)=O)[C@]5(CC)C=CCN6CC[C@]43[C@@H]65)C2)C1 [Vinblastine, reference compound]	
5.2 ± 0.03 (≈ 13.2 µM)	1 ± 0.12 (≈ 2.53 µM)	0.8 ± 0.12 (≈ 2.02 µM)	242 to 243					N#CC1=C(N)Oc2ccc3cc(Br)ccc3c2C1c1ccc(F)cc1 (stereo not drawn) [Compound 4b, 3-Amino-8-bromo-1-(4-fluorophenyl)-1H-benzo[f]chromene-2-carbonitrile]	
3.1 ± 0.29 (≈ 8.54 µM)	2.5 ± 0.97 (≈ 6.89 µM)	0.3 ± 0.08 (≈ 0.827 µM)	247 to 248					COc1ccc2c3c(ccc2c1)OC(N)=C(C#N)C3c1ccc(Cl)cc1 (stereo not drawn) [Compound 6c, 3-Amino-1-(4-chlorophenyl)-8-methoxy-1H-benzo[f]chromene-2-carbonitrile]	
2 ± 0.25 (≈ 4.91 µM)	0.9 ± 0.58 (≈ 2.21 µM)	0.7 ± 0.13 (≈ 1.72 µM)	261 to 262	25600	214 to 329 nM and 329 nM			COc1ccc2c3c(ccc2c1)OC(N)=C(C#N)C3c1ccc(Br)cc1 (stereo not drawn) [Compound 6d, 3-Amino-1-(4-bromophenyl)-8-methoxy-1H-benzo[f]chromene-2-carbonitrile]	35.5 ± 0.22 (≈ 87.2 µM)
0.4 ± 0.01 (≈ 0.736 µM)	0.5 ± 0.015 (≈ 0.92 µM)	0.9 ± 0.04 (≈ 1.66 µM)						COc1cccc2c1C(=O)c1c(O)c3c(c(O)c1C2=O)C[C@@](O)(C(=O)CO)C[C@@H]3O[C@H]1C[C@H](N)[C@H](O)[C@H](C)O1 [Doxorubicin, reference compound]	
16 ± 0.92 (≈ 41.2 µM)	10.9 ± 0.5 (≈ 28.1 µM)	9 ± 0.3 (≈ 23.2 µM)	210 to 211					COc1ccc(C2C(C#N)=C(N)Oc3ccc4cc(OC)ccc4c32)c(OC)c1 (stereo not drawn) [Compound 6g, 3-Amino-1-(2,4-dimethoxyphenyl)-8-methoxy-1H-benzo[f]chromene-2-carbonitrile]	
4.4 ± 0.05 (≈ 12.7 µM)	4.9 ± 0.01 (≈ 14.1 µM)	0.5 ± 0.01 (≈ 1.44 µM)	256 to 257					COc1ccc2c3c(ccc2c1)OC(N)=C(C#N)C3c1ccc(F)cc1 (stereo not drawn) [Compound 6b, 3-Amino-1-(4-flourophenyl)-8-methoxy-1H-benzo[f]chromene-2-carbonitrile]	
41.1 ± 0.25 (≈ 106 µM)	13.9 ± 0.3 (≈ 35.8 µM)	30.7 ± 0.5 (≈ 79 µM)	200 to 201					COc1ccc2c3c(ccc2c1)OC(N)=C(C#N)C3c1ccc(OC)c(OC)c1 (stereo not drawn) [Compound 6h, 3-Amino-1-(3,4-dimethoxyphenyl)-8-methoxy-1H-benzo[f]chromene-2-carbonitrile]	
0.9 ± 0.29 (≈ 2.39 µM)	1.2 ± 0.97 (≈ 3.18 µM)	0.7 ± 0.5 (≈ 1.86 µM)	245 to 246					N#CC1=C(N)Oc2ccc3cc(Br)ccc3c2C1c1ccccc1 (stereo not drawn) [Compound 4a, 3-Amino-8-bromo-1-phenyl-1H-benzo[f]chromene-2-carbonitrile]	
3.8 ± 0.36 (≈ 9.33 µM)	44.9 ± 0.14 (≈ 110 µM)	4.4 ± 0.05 (≈ 10.8 µM)	234 to 235					COc1ccc(C2C(C#N)=C(N)Oc3ccc4cc(Br)ccc4c32)cc1 (stereo not drawn) [Compound 4f, 3-Amino-8-bromo-1-(4-methoxyphenyl)-1H-benzo[f]chromene-2-carbonitrile]	
3.6 ± 0.01 (≈ 8.23 µM)	3.7 ± 0.15 (≈ 8.46 µM)	2.8 ± 0.17 (≈ 6.4 µM)	220 to 221					COc1ccc(C2C(C#N)=C(N)Oc3ccc4cc(Br)ccc4c32)c(OC)c1 (stereo not drawn) [Compound 4g, 3-Amino-8-bromo-1-(2,4-dimethoxyphenyl)-1H-benzo[f]chromene-2-carbonitrile]	
2.5 ± 0.18 (≈ 6.39 µM)	0.7 ± 0.25 (≈ 1.79 µM)	0.9 (≈ 2.3 µM)	215 to 216	19500	9 nM			Cc1ccc(C2C(C#N)=C(N)Oc3ccc4cc(Br)ccc4c32)cc1 (stereo not drawn) [Compound 4e, 3-Amino-8-bromo-1-(4-methylphenyl)-1H-benzo[f]chromene-2-carbonitrile]	22.4 ± 0.21 (≈ 57.2 µM)

Compound	IC50 (MCF-7) [µg/mL]	IC50 (HCT-116) [µg/mL]	IC50 (HepG-2) [µg/mL]	melting point [°C]	IC50 [1] [nM]	IC50 (c-Src kinase)	IC50 (MDA-MB-231 cell line; Table 2, read-out: IC50 anti-invasion, MDA-MB-231 breast cancer cells) [nM]	IC50 (MDA-MB-231 cell line; read-out: IC50 anti-invasion activity, MDA-MB-231) [nM]	IC50 (HFL-1) [µg/mL]
CN[C@@H]1C[C@H]2O[C@@](C)([C@@H]1OC)n1c3ccccc3c3c4c(c5c6ccccc6n2c5c31)C(=O)NC4 [Staurosporine, staurosporine, reference compound]					68.5				
